Measured values as given in the NIST ThermoML archive (doi:10.1016/j.jct.2015.02.017).

Assay: mn = molality of the nth substance listed, in mol/kg
Conditions: 298.15 K, 101 kPa, Liquid; for viscosity: Capillary tube (Ostwald / Ubbelohde) method; for mass density: Vibrating tube method

C[n+]1ccn(CCCCCCn2cc[n+](C)c2)c1.[Br-].[Br-] + O
Conditions | mass density [kg/m3] | viscosity [mPa·s]
m1 = 0.0407 | – | 0.917
m1 = 0.0814 | 1006.92 | –
m1 = 0.0989 | – | 0.953
m1 = 0.1 | 1009.1 | –
m1 = 0.1196 | – | 0.966
m1 = 0.1206 | 1011.5 | –
m1 = 0.1403 | 1013.75 | 0.98
m1 = 0.1604 | – | 0.993
m1 = 0.1772 | 1017.94 | –
m1 = 0.2001 | – | 1.02

C[n+]1ccn(CCCCCn2cc[n+](C)c2)c1.[Br-].[Br-] + O
Conditions | mass density [kg/m3] | viscosity [mPa·s]
m1 = 0.05 | 1003.25 | 0.917
m1 = 0.0825 | 1007.17 | –
m1 = 0.0967 | – | 0.943
m1 = 0.1108 | 1010.53 | 0.949
m1 = 0.1389 | – | 0.966
m1 = 0.1522 | 1015.32 | –
m1 = 0.1621 | – | 0.979
m1 = 0.1929 | – | 0.996
m1 = 0.2152 | 1022.44 | –

C[n+]1ccn(CCCCn2cc[n+](C)c2)c1.[Br-].[Br-] + O
Conditions | mass density [kg/m3] | viscosity [mPa·s]
m1 = 0.0993 | 1009.54 | 0.94
m1 = 0.1398 | 1014.42 | 0.958
m1 = 0.1597 | 1016.78 | 0.967
m1 = 0.1794 | – | 0.977
m1 = 0.194 | 1020.81 | 0.984
m1 = 0.2187 | 1023.65 | 0.996
m1 = 0.2485 | 1027.04 | 1.008

O=C[C@H](O)[C@@H](O)[C@H](O)[C@H](O)CO [D-glucose] + O
Conditions | mass density [kg/m3] | viscosity [mPa·s]
m1 = 0.2 | 1010.41 | 0.975
m1 = 0.4 | 1023.12 | 1.068
m1 = 0.8 | 1046.88 | 1.28
m1 = 1.2 | 1068.58 | 1.532
m1 = 1.6 | 1088.48 | 1.83
